The test system of one data set is intracellular HBV DNA. As to the kind of experiment: Real-time PCR for intracellular HBV DNA in HepAD38 cells. The format is cell-based. To be noted: Hepatitis B virus, HePAD38, 65 h, 65 hours treatment. (In general: In qPCR the cycle at which signal appears reflects the starting amount.)
Data set [1] can be described thus: Cell viability assay (EZ-Cytox), cytotoxicity. The format is cell-based. The following applies: human, HepAD38 cells; for viability at 65 h, 100 µM: read-out: Cytotoxicity % Livability (@100 μM). The protocol:
HepAD38 cells were cultured for 2 days in Dulbecco's Modified Eagle's medium (Welgene, LM001-05) supplemented with 10% FBS without tetracycline. […] After 65 hours of treatment, viability was measured using EZ-Cytox cell viability assay kit (Daeil Lab Service) according to the manufacturer's instructions. The absorbance was measured at 450 nm using a spectrophotometer (Spark, Tecan).

This is an account of results in US20250009742A1 (priority 2021, published 2025).

On to `CC(=O)c1ccc(N(Cc2n[nH]c3c2CCOC3)C(=O)Nc2ccc(F)c(Cl)c2)cn1` [Example 21, 1-(6-acetylpyridin-3-yl)-3-(3-chloro-4-fluorophenyl)-1-((1,4,5,7-tetrahydropyrano[3,4-c]pyrazol-3-yl)methyl)urea], for which, in the data set on intracellular HBV DNA, the IC50 (as a rule, the midpoint of a concentration-inhibition curve) is > 1.1 µM. Besides, in data set [1], the CC50 (usually the concentration giving 50% cytotoxicity) at 65 h was > 100 µM.

On to `CNS(=O)(=O)c1ccc(N(Cc2n[nH]c3c2CCOC3)C(=O)Nc2ccc(F)c(Cl)c2)cc1` [Example 23, 4-(3-(3-chloro-4-fluorophenyl)-1-((1,4,5,7-tetrahydropyrano[3,4-c]pyrazol-3-yl)methyl)ureido)-N-methylbenzenesulfonamide], for which, in the data set on intracellular HBV DNA, the IC50 was > 1.1 µM. Besides, the CC50 at 65 h in data set [1] is > 100 µM.

For the compound `Cn1cc(N(Cc2n[nH]c3c2CCCC3)C(=O)Nc2ccc(F)c(Cl)c2)cn1` [Example 24, 3-(3-chloro-4-fluorophenyl)-1-(1-methyl-1H-pyrazol-4-yl)-1-((4,5,6,7-tetrahydro-1H-indazol-3-yl)methyl)urea], the IC50 in the data set with intracellular HBV DNA was 0.16 µM. Besides, in data set [1], the cytotoxic concentration (CC50) at 65 h is > 100 µM and the viability at 65 h, 100 µM stood at 53.4%.

Consider `Cn1ccc(N(Cc2n[nH]c3c2CCCO3)C(=O)Nc2ccc(F)c(Cl)c2)n1` [Example 25, 3-(3-chloro-4-fluorophenyl)-1-(1-methyl-1H-pyrazol-3-yl)-1-((1,4,5,6-tetrahydropyrano[2,3-c]pyrazol-3-yl)methyl)urea], for which the IC50 in the data set with intracellular HBV DNA was > 1.1 µM. For the same compound, in data set [1], the CC50 at 65 h is > 100 µM and the viability at 65 h, 100 µM worked out at 100%.

Consider `Cc1cc(N(Cc2n[nH]c3c2CCCO3)C(=O)Nc2ccc(F)c(Cl)c2)no1` [Example 26, 3-(3-chloro-4-fluorophenyl)-1-(5-methylisoxazol-3-yl)-1-((1,4,5,6-tetrahydropyrano[2,3-c]pyrazol-3-yl)methyl)urea], for which, in the data set on intracellular HBV DNA, the IC50 was > 1.1 µM. In addition, in data set [1], the CC50 at 65 h was > 100 µM and the viability at 65 h, 100 µM stood at 93%.

Regarding `COc1ncc(N(Cc2cc(C(F)(F)F)[nH]n2)C(=O)Nc2ccc(F)c(Cl)c2)c(C)n1` [Example 28, 3-(3-chloro-4-fluorophenyl)-1-(2-methoxy-4-methylpyrimidin-5-yl)-1-((5-(trifluoromethyl)-1H-pyrazol-3-yl)methyl)urea], in the data set on intracellular HBV DNA, the IC50 stood at 0.06 µM. Moreover, in data set [1], half-maximal cytotoxicity (CC50 at 65 h) was put at 47.2 µM and the viability at 65 h, 100 µM amounted to 7%.

With `COc1cc(C)c(N(Cc2cc(C(F)(F)F)[nH]n2)C(=O)Nc2ccc(F)c(Cl)c2)c(C)c1` [Example 29, 3-(3-chloro-4-fluorophenyl)-1-(4-methoxy-2,6-dimethylphenyl)-1-((5-(trifluoromethyl)-1H-pyrazol-3-yl)methyl)urea], the 50% inhibitory concentration (IC50) in the data set with intracellular HBV DNA was > 1.1 µM. Further, in data set [1], the CC50 at 65 h was found to be 12.2 µM and the viability at 65 h, 100 µM was found to be 6.9%.

In the case of `COc1nc(C)c(N(Cc2cc(C(F)(F)F)[nH]n2)C(=O)Nc2ccc(F)c(Cl)c2)c(C)n1` [Example 30, 3-(3-chloro-4-fluorophenyl)-1-(2-methoxy-4,6-dimethylpyrimidin-5-yl)-1-((5-(trifluoromethyl)-1H-pyrazol-3-yl)methyl)urea], the half-maximal inhibitory concentration (IC50) in the data set with intracellular HBV DNA was > 1.1 µM. In data set [1], the half-maximal cytotoxic concentration (CC50) at 65 h is > 100 µM and the viability at 65 h, 100 µM was found to be 52.4%.

Regarding `COc1ccc(N(Cc2nn(C)c3c2COCC3)C(=O)Nc2ccc(F)c(Cl)c2)cc1` [Example 39, 3-(3-chloro-4-fluorophenyl)-1-(4-methoxyphenyl)-1-((1-methyl-1,4,6,7-tetrahydropyrano[4,3-c]pyrazol-3-yl)methyl)urea], in the data set on intracellular HBV DNA, the IC50 was 0.33 µM. In addition, in data set [1], the CC50 at 65 h is > 100 µM and the viability at 65 h, 100 µM was 96%.

As for `COc1ccc(N(Cc2n[nH]c3c2COCC3)C(=O)Nc2ccc(F)c(Cl)c2)cn1` [Example 55, 3-(3-chloro-4-fluorophenyl)-1-(6-methoxypyridin-3-yl)-1-((1,4,6,7-tetrahydropyrano[4,3-c]pyrazol-3-yl)methyl)urea], the IC50 in the data set on intracellular HBV DNA came out at 0.017 µM. Further, in data set [1], the CC50 at 65 h was > 100 µM and the viability at 65 h, 100 µM is 102%.
